Measurements taken from US20250034201A1, “PRODRUGS OF GANAXOLONE” (priority 2022, published 2025).

Test: in vitro
Assay type: in vitro ADME, human
Settings: human liver microsomes
Experimental: For several compounds only human liver microsomal stability was tested. […] The microsomal assays were carried out with and without the addition of NADPH at a final concentration of 1 mM. For negative control samples, NADPH reagent was not added. […] Note that compounds undergo only Phase I metabolism in liver microsomes.

SMILES | Comments: production of GNX (ganaxolone) in human liver microsomes
CC(=O)[C@H]1CC[C@H]2[C@@H]3CC[C@H]4C[C@](C)(OC(=O)C[C@H](N)C(=O)O)CC[C@]4(C)[C@H]3CC[C@]12C [Compound 414] | In human no GNX produced
CC(=O)[C@H]1CC[C@H]2[C@@H]3CC[C@H]4C[C@](C)(OC(=O)COC(=O)C(C)(C)N5CCOCC5)CC[C@]4(C)[C@H]3CC[C@]12C [Compound 213] | In human small amount of GNX produced
CC(=O)[C@H]1CC[C@H]2[C@@H]3CC[C@H]4C[C@](C)(OC(=O)CCC(=O)O)CC[C@]4(C)[C@H]3CC[C@]12C [Compound 407] | In human no GNX produced
CC(=O)[C@H]1CC[C@H]2[C@@H]3CC[C@H]4C[C@](C)(OC(=O)CC(C)(C)C(=O)OCCN(C)C)CC[C@]4(C)[C@H]3CC[C@]12C [Compound 413] | In human no GNX produced
CC(=O)[C@H]1CC[C@H]2[C@@H]3CC[C@H]4C[C@](C)(OC(=O)CNCC(C)(C)N)CC[C@]4(C)[C@H]3CC[C@]12C [Compound 138] | In human small amount of GNX produced

Same assay, conditions: human liver microsomes 0.5 mg/mL, with NADPH, compound 0.5 μM, 37° C.; read-out: Human Liver Microsomal Stability t1/2

SMILES | half-life [min]
CC(=O)[C@H]1CC[C@H]2[C@@H]3CC[C@H]4C[C@](C)(OC(=O)C[C@H](N)C(=O)O)CC[C@]4(C)[C@H]3CC[C@]12C [Compound 414] | 178
CC(=O)[C@H]1CC[C@H]2[C@@H]3CC[C@H]4C[C@](C)(OC(=O)COC(=O)C(C)(C)N5CCOCC5)CC[C@]4(C)[C@H]3CC[C@]12C [Compound 213] | 27.3
COCCN(CCO)CC(=O)OC(C)(C)C(=O)OCC(=O)O[C@]1(C)CC[C@@]2(C)[C@@H](CC[C@@H]3[C@@H]2CC[C@]2(C)[C@@H](C(C)=O)CC[C@@H]32)C1 [Compound 235] | 5.2
COCCOCCOCC(=O)OCC(=O)O[C@]1(C)CC[C@@]2(C)[C@@H](CC[C@@H]3[C@@H]2CC[C@]2(C)[C@@H](C(C)=O)CC[C@@H]32)C1 [Compound 205] | 3.58
CC(=O)[C@H]1CC[C@H]2[C@@H]3CC[C@H]4C[C@](C)(OC(=O)CCC(=O)O)CC[C@]4(C)[C@H]3CC[C@]12C [Compound 407] | 79.8
CC(=O)[C@H]1CC[C@H]2[C@@H]3CC[C@H]4C[C@](C)(OC(=O)CC(C)(C)C(=O)OCCN(C)C)CC[C@]4(C)[C@H]3CC[C@]12C [Compound 413] | 126
CC(=O)[C@H]1CC[C@H]2[C@@H]3CC[C@H]4C[C@](C)(OC(=O)COC(=O)CNC(=O)[C@H](C)N)CC[C@]4(C)[C@H]3CC[C@]12C [Compound 216] | 192
CC(=O)[C@H]1CC[C@H]2[C@@H]3CC[C@H]4C[C@](C)(OC(=O)COC(=O)C(C)(C)OC(=O)CN(C)CCO)CC[C@]4(C)[C@H]3CC[C@]12C [Compound 233] | 5.3
CC(=O)[C@H]1CC[C@H]2[C@@H]3CC[C@H]4C[C@](C)(OC(=O)CNCC(C)(C)N)CC[C@]4(C)[C@H]3CC[C@]12C [Compound 138] | 33.2
CC(=O)[C@H]1CC[C@H]2[C@@H]3CC[C@H]4C[C@](C)(OC(=O)COC(=O)[C@H](C)N5CCOCC5)CC[C@]4(C)[C@H]3CC[C@]12C [Compound 211] | 10.5

Same assay, conditions: human liver microsomes 0.5 mg/mL, with NADPH, compound 0.5 μM; read-out: Human Liver Microsomal Stability CLint (uL/min/mg liver) (converted)

SMILES | microsomal CLint [µL/min/mg]
CC(=O)[C@H]1CC[C@H]2[C@@H]3CC[C@H]4C[C@](C)(OC(=O)C[C@H](N)C(=O)O)CC[C@]4(C)[C@H]3CC[C@]12C [Compound 414] | 7.81
CC(=O)[C@H]1CC[C@H]2[C@@H]3CC[C@H]4C[C@](C)(OC(=O)COC(=O)C(C)(C)N5CCOCC5)CC[C@]4(C)[C@H]3CC[C@]12C [Compound 213] | 50.7
COCCN(CCO)CC(=O)OC(C)(C)C(=O)OCC(=O)O[C@]1(C)CC[C@@]2(C)[C@@H](CC[C@@H]3[C@@H]2CC[C@]2(C)[C@@H](C(C)=O)CC[C@@H]32)C1 [Compound 235] | 269
COCCOCCOCC(=O)OCC(=O)O[C@]1(C)CC[C@@]2(C)[C@@H](CC[C@@H]3[C@@H]2CC[C@]2(C)[C@@H](C(C)=O)CC[C@@H]32)C1 [Compound 205] | 387
CC(=O)[C@H]1CC[C@H]2[C@@H]3CC[C@H]4C[C@](C)(OC(=O)CCC(=O)O)CC[C@]4(C)[C@H]3CC[C@]12C [Compound 407] | 17.4
CC(=O)[C@H]1CC[C@H]2[C@@H]3CC[C@H]4C[C@](C)(OC(=O)CC(C)(C)C(=O)OCCN(C)C)CC[C@]4(C)[C@H]3CC[C@]12C [Compound 413] | 11
CC(=O)[C@H]1CC[C@H]2[C@@H]3CC[C@H]4C[C@](C)(OC(=O)COC(=O)CNC(=O)[C@H](C)N)CC[C@]4(C)[C@H]3CC[C@]12C [Compound 216] | 7.22
CC(=O)[C@H]1CC[C@H]2[C@@H]3CC[C@H]4C[C@](C)(OC(=O)COC(=O)C(C)(C)OC(=O)CN(C)CCO)CC[C@]4(C)[C@H]3CC[C@]12C [Compound 233] | 261
CC(=O)[C@H]1CC[C@H]2[C@@H]3CC[C@H]4C[C@](C)(OC(=O)CNCC(C)(C)N)CC[C@]4(C)[C@H]3CC[C@]12C [Compound 138] | 41.8
CC(=O)[C@H]1CC[C@H]2[C@@H]3CC[C@H]4C[C@](C)(OC(=O)COC(=O)[C@H](C)N5CCOCC5)CC[C@]4(C)[C@H]3CC[C@]12C [Compound 211] | 132

Same assay, conditions: human liver microsomes, no NADPH, 1 h, compound 0.5 μM

SMILES | Human Liver Microsomal Stability no NADPH, % remain 1 h [%]
CC(=O)[C@H]1CC[C@H]2[C@@H]3CC[C@H]4C[C@](C)(OC(=O)C[C@H](N)C(=O)O)CC[C@]4(C)[C@H]3CC[C@]12C [Compound 414] | 82
CC(=O)[C@H]1CC[C@H]2[C@@H]3CC[C@H]4C[C@](C)(OC(=O)COC(=O)C(C)(C)N5CCOCC5)CC[C@]4(C)[C@H]3CC[C@]12C [Compound 213] | 98
COCCN(CCO)CC(=O)OC(C)(C)C(=O)OCC(=O)O[C@]1(C)CC[C@@]2(C)[C@@H](CC[C@@H]3[C@@H]2CC[C@]2(C)[C@@H](C(C)=O)CC[C@@H]32)C1 [Compound 235] | 36
COCCOCCOCC(=O)OCC(=O)O[C@]1(C)CC[C@@]2(C)[C@@H](CC[C@@H]3[C@@H]2CC[C@]2(C)[C@@H](C(C)=O)CC[C@@H]32)C1 [Compound 205] | 5.7
CC(=O)[C@H]1CC[C@H]2[C@@H]3CC[C@H]4C[C@](C)(OC(=O)CCC(=O)O)CC[C@]4(C)[C@H]3CC[C@]12C [Compound 407] | 99
CC(=O)[C@H]1CC[C@H]2[C@@H]3CC[C@H]4C[C@](C)(OC(=O)CC(C)(C)C(=O)OCCN(C)C)CC[C@]4(C)[C@H]3CC[C@]12C [Compound 413] | 89
CC(=O)[C@H]1CC[C@H]2[C@@H]3CC[C@H]4C[C@](C)(OC(=O)COC(=O)CNC(=O)[C@H](C)N)CC[C@]4(C)[C@H]3CC[C@]12C [Compound 216] | 80
CC(=O)[C@H]1CC[C@H]2[C@@H]3CC[C@H]4C[C@](C)(OC(=O)COC(=O)C(C)(C)OC(=O)CN(C)CCO)CC[C@]4(C)[C@H]3CC[C@]12C [Compound 233] | 5
CC(=O)[C@H]1CC[C@H]2[C@@H]3CC[C@H]4C[C@](C)(OC(=O)CNCC(C)(C)N)CC[C@]4(C)[C@H]3CC[C@]12C [Compound 138] | 95.3
CC(=O)[C@H]1CC[C@H]2[C@@H]3CC[C@H]4C[C@](C)(OC(=O)COC(=O)[C@H](C)N5CCOCC5)CC[C@]4(C)[C@H]3CC[C@]12C [Compound 211] | 27

Same assay, conditions: human, microsomes

SMILES | half-life [min] | microsomal CLint [µL/min/mg]
CC(=O)[C@H]1CC[C@H]2[C@@H]3CC[C@H]4C[C@](C)(OC(=O)CNC(C)(C)CO)CC[C@]4(C)[C@H]3CC[C@]12C [Compound 132] | 11.7 | 118

Same assay, conditions: human, microsomes, 1 h

SMILES | Human Liver Microsomal Stability no NADPH, % remain 1 h [%]
CC(=O)[C@H]1CC[C@H]2[C@@H]3CC[C@H]4C[C@](C)(OC(=O)CNC(C)(C)CO)CC[C@]4(C)[C@H]3CC[C@]12C [Compound 132] | 1
